Assay results: patent US10668018B2, “Pharmaceutical compositions” (MEXICHEM AMANCO HOLDINGS S.A. DE C.V., priority 2011, dated 2020)

Key:
[1] = Amount of ethanol required to dissolve the drug in propellant/ethanol mixture (visual, first clear solution); assay type: physicochemical; conditions: for ethanol required to dissolve the drug: 20° C., drug amount equivalent to MDI dose of 50 μg (FP) or 250 μg (BDP); for Ethanol Content in R-134a / Ethanol Content in R-152a: amount required to dissolve the drug completely, BDP 250 μg, FP 50 μg dose
Procedure: A series of glass vials were charged with 0.00869 g (8.69 mg) of fluticasone propionate. R-152a propellant was then added to each vial, the amount being decreased from one vial to the next to compensate for increasing amounts of ethanol. An amount of ethanol was then added to each vial, with the amount being increased in increments from one vial to the next, in order to determine the minimum amount of ethanol required to dissolve the fluticasone propionate in the R-152a/ethanol mixture. […] The amount of ethanol in the R-152a/ethanol mixture was increased from 1% by weight on the total weight of the R-152a/ethanol mixture in 1% w/w increments. After adding the ethanol, each vial was sonicated in an effort to dissolve the drug, stored at 20° C. and then examined visually to determine whether the drug had in fact dissolved. […] It was determined that 5.0% w/w of ethanol was required to dissolve the fluticasone propionate. […] R-152a propellant was then added to each vial, the amount being decreased from one vial to the next to compensate for increasing amounts of ethanol. […] The amount of ethanol in the R-152a/ethanol mixture was increased from 1% by weight on the total weight of the R-152a/ethanol mixture in 1% w/w increments. After adding the ethanol, each vial was sonicated in an effort to dissolve the drug, stored at 20° C. and then examined visually to determine whether the drug had in fact dissolved. […] Exactly the same procedure as described in Example 3 above was used except that R-134a was used as the propellant. It was determined that 13.0% w/w of ethanol (% by weight on the total weight of the R-134a/ethanol mixture) was required to dissolve the fluticasone propionate. […] Exactly the same procedure as described in Example 4 above was used except that R-134a was used as the propellant. […] The drug was weighed directly into standard aluminium 19 mL cans (C128, Presspart, Blackburn, UK), to which an appropriate amount of ethanol was added to aid solubility of the drug on addition of the propellant. The slurry of the drug in ethanol was then sonicated for 60 minutes in order to disperse the drug in the ethanol. The cans were then crimped with a 50 μL valve (Bespak, Kings Lynn, UK) following which R-152a or R-134a as appropriate was filled into the cans through the valve using a manual Pamasol crimper/filler (Pamasol, Switzerland). […] Finally, all the cans were quarantined for 14 days, valve down, at 22° C./44% RH before commencing testing of the final formulations.

[2] = Solubility of drug in liquefied propellant (pressure solubility apparatus, HPLC); assay type: physicochemical; conditions: stored at 20° C. for 24 hours, n=3
Procedure: An excess of active pharmaceutical ingredient was placed into a pressure cylinder (300 cm^3 stainless steel cylinder from Whitey, Inc.). A vacuum was applied to the cylinder, which was then chilled using liquid nitrogen. Approximately 80 grams of either R-152a or R-134a propellant was charged into the cylinder, which was then stored at 20° C. for 24 hours.
A filtration unit comprising a 15 μm filter in-line with a 5 μm filter was connected to the cylinder containing the excess of drug in propellant. A second receiver pressure cylinder (150 cm^3 stainless steel cylinder from Whitey, Inc.) was exposed to a vacuum and chilled using liquid nitrogen, which was then connected to the filtration unit. Approximately 30 grams of liquid propellant containing drug in excess was passed through the filtration unit and collected in the receiver pressure cylinder.
A modified piece of 3.2 mm (⅛″) tubing was connected to the end of the receiver pressure cylinder, which was then attached to the stem of a continuous valve crimped on to a glass bottle. The 3.2 mm (⅛″) tubing was used to depress the stem of the valve and therefore, enable the contents of the receiver pressure cylinder to be collected in the glass bottle. […] The glass bottle was re-weighed and the mass of drug collected in the DUSA was determined by high performance liquid chromatography (HPLC). […]

Row | ethanol required to dissolve the drug ([1]; R-134a/ethanol mixture) | ethanol required to dissolve the drug ([1]; R-152a/ethanol mixture) | Ethanol Content in R-134a [1] | Ethanol Content in R-152a [1] | mean drug solubility (± S.D.) ([2]; propellant comprising 100% R-134a) | mean drug solubility (± S.D.) ([2]; propellant comprising 100% R-152a) | SMILES
1 | 4.0 % w/w | 2.0 % w/w | 4.0 % w/w | 2.0 % w/w |  |  | CCC(=O)OCC(=O)[C@@]1(OC(=O)CC)[C@@H](C)C[C@H]2[C@@H]3CCC4=CC(=O)C=C[C@]4(C)[C@@]3(Cl)[C@@H](O)C[C@@]21C [beclomethasone dipropionate]
2 | 13.0 % w/w | 5.0 % w/w | 13.0 % w/w | 5.0 % w/w | 14.27 ± 1.66 µg/g | 73.55 ± 3.98 µg/g | CCC(=O)O[C@]1(C(=O)SCF)[C@H](C)C[C@H]2[C@@H]3C[C@H](F)C4=CC(=O)C=C[C@]4(C)[C@@]3(F)[C@@H](O)C[C@@]21C [fluticasone propionate]
